Measured values: patent publication US9963445B2, “Chemical compounds” (SYNGENTA PARTICIPATIONS AG, priority 2013, dated 2018)

Tested on: Alopecurus myosuroides
Experiment: Post-emergence herbicidal activity, glasshouse pot test
Format: in vivo
Design: key: 0 = no damage to plant, 5 = total damage to plant
Conditions: Application post-emergence, rate 1000 g/ha, evaluated after 13 days
Protocol: (§1) Seeds of a variety of test species were sown in standard soil in pots. After 8 days cultivation (post-emergence) under controlled conditions in a glasshouse (at 24/16° C., day/night; 14 hours light; 65% humidity), the plants were sprayed with an aqueous spray solution derived from the formulation of the technical active ingredient in acetone/water (50:50) solution containing 0.5% Tween 20 (polyoxyethelyene sorbitan monolaurate, CAS RN 9005-64-5). The test plants were then grown in a glasshouse under controlled conditions (at 24/16° C., day/night; 14 hours light; 65% humidity) and watered twice daily. After 13 days, the test was evaluated (5=total damage to plant; 0=no damage to plant).
(§2) ABUTH=Abutilon theophrasti; SOLNI=Solanum nigrum; AMARE=Amaranthus retroflexus; SETFA=Setaria faberi; ALOMY=Alopecurus myosuroides; ECHCG=Echinochloa crus-galli, ZEAMX=zea mays.

Point of comparison: `CC1=C(Cl)C(=O)N(c2cc(C(C)F)ccn2)C1O` (stereo not drawn) [AF40], “ALOMY herbicidal damage score” value 3. Against it:
- CC1=C(Cl)C(=O)N(c2cc(C(C)(C)C)ccn2)C1O (stereo not drawn) [AF36] — higher, 4
- CC1=C(Cl)C(=O)N(c2cc(C(F)(F)F)cc(Cl)n2)C1O (stereo not drawn) [AF37] — higher, 4
- CC1=C(Cl)C(=O)N(c2cc(F)ccn2)C1O (stereo not drawn) [AF39] — higher, 4
- CC1=C(Cl)C(=O)N(c2cc(C)ccn2)C1O (stereo not drawn) [AF41] — higher, 5
- COC(=O)c1cnc(N2C(=O)C(Cl)=C(C)C2O)cc1C(F)(F)F (stereo not drawn) [AF42] — the same, 3
- CC1=C(Cl)C(=O)N(c2cc(C(F)(F)F)c(C(F)(F)F)cn2)C1O (stereo not drawn) [AF43] — lower, 2

Tested on: zea mays
Experiment: as above
Format: in vivo
Design: key: 0 = no damage to plant, 5 = total damage to plant
Conditions: Application post-emergence, rate 1000 g/ha, evaluated after 13 days
Protocol: as §1, §2

Point of comparison: `CC1=C(Cl)C(=O)N(c2cc(C(F)(F)F)cc(Cl)n2)C1O` (stereo not drawn) [AF37], “ZEAMX herbicidal damage score” value 1. Against it:
- CC1=C(Cl)C(=O)N(c2cc(C(C)(C)C)ccn2)C1O (stereo not drawn) [AF36] — higher, 4
- CC1=C(Cl)C(=O)N(c2cc(F)ccn2)C1O (stereo not drawn) [AF39] — higher, 2
- CC1=C(Cl)C(=O)N(c2cc(C(C)F)ccn2)C1O (stereo not drawn) [AF40] — higher, 5
- CC1=C(Cl)C(=O)N(c2cc(C)ccn2)C1O (stereo not drawn) [AF41] — higher, 4
- COC(=O)c1cnc(N2C(=O)C(Cl)=C(C)C2O)cc1C(F)(F)F (stereo not drawn) [AF42] — the same, 1
- CC1=C(Cl)C(=O)N(c2cc(C(F)(F)F)c(C(F)(F)F)cn2)C1O (stereo not drawn) [AF43] — lower, 0

Tested on: Setaria faberi
Experiment: as above
Format: in vivo
Design: key: 0 = no damage to plant, 5 = total damage to plant
Conditions: Application post-emergence, rate 1000 g/ha, evaluated after 13 days
Protocol: as §1, §2

Point of comparison: `COC(=O)c1cnc(N2C(=O)C(Cl)=C(C)C2O)cc1C(F)(F)F` (stereo not drawn) [AF42], “SETFA herbicidal damage score” value 5. Against it:
- CC1=C(Cl)C(=O)N(c2cc(C(C)(C)C)ccn2)C1O (stereo not drawn) [AF36] — the same, 5
- CC1=C(Cl)C(=O)N(c2cc(C(F)(F)F)cc(Cl)n2)C1O (stereo not drawn) [AF37] — lower, 4
- CC1=C(Cl)C(=O)N(c2cc(F)ccn2)C1O (stereo not drawn) [AF39] — lower, 4
- CC1=C(Cl)C(=O)N(c2cc(C(C)F)ccn2)C1O (stereo not drawn) [AF40] — lower, 4
- CC1=C(Cl)C(=O)N(c2cc(C)ccn2)C1O (stereo not drawn) [AF41] — the same, 5
- CC1=C(Cl)C(=O)N(c2cc(C(F)(F)F)c(C(F)(F)F)cn2)C1O (stereo not drawn) [AF43] — the same, 5

Tested on: Abutilon theophrasti
Experiment: as above
Format: in vivo
Design: key: 0 = no damage to plant, 5 = total damage to plant
Conditions: Application post-emergence, rate 1000 g/ha, evaluated after 13 days
Protocol: as §1, §2

Point of comparison: `CC1=C(Cl)C(=O)N(c2cc(C(F)(F)F)cc(Cl)n2)C1O` (stereo not drawn) [AF37], “ABUTH herbicidal damage score” value 2. Against it:
- CC1=C(Cl)C(=O)N(c2cc(C(C)(C)C)ccn2)C1O (stereo not drawn) [AF36] — higher, 5
- CC1=C(Cl)C(=O)N(c2cc(F)ccn2)C1O (stereo not drawn) [AF39] — higher, 5
- CC1=C(Cl)C(=O)N(c2cc(C(C)F)ccn2)C1O (stereo not drawn) [AF40] — higher, 5
- CC1=C(Cl)C(=O)N(c2cc(C)ccn2)C1O (stereo not drawn) [AF41] — higher, 5
- COC(=O)c1cnc(N2C(=O)C(Cl)=C(C)C2O)cc1C(F)(F)F (stereo not drawn) [AF42] — higher, 4
- CC1=C(Cl)C(=O)N(c2cc(C(F)(F)F)c(C(F)(F)F)cn2)C1O (stereo not drawn) [AF43] — lower, 1

Tested on: Amaranthus retroflexus
Experiment: as above
Format: in vivo
Design: key: 0 = no damage to plant, 5 = total damage to plant
Conditions: Application post-emergence, rate 1000 g/ha, evaluated after 13 days
Protocol: as §1, §2

Point of comparison: `CC1=C(Cl)C(=O)N(c2cc(C(C)F)ccn2)C1O` (stereo not drawn) [AF40], “AMARE herbicidal damage score” value 5. Against it:
- CC1=C(Cl)C(=O)N(c2cc(C(C)(C)C)ccn2)C1O (stereo not drawn) [AF36] — lower, 3
- CC1=C(Cl)C(=O)N(c2cc(C(F)(F)F)cc(Cl)n2)C1O (stereo not drawn) [AF37] — lower, 0
- CC1=C(Cl)C(=O)N(c2cc(F)ccn2)C1O (stereo not drawn) [AF39] — the same, 5
- CC1=C(Cl)C(=O)N(c2cc(C)ccn2)C1O (stereo not drawn) [AF41] — the same, 5
- COC(=O)c1cnc(N2C(=O)C(Cl)=C(C)C2O)cc1C(F)(F)F (stereo not drawn) [AF42] — lower, 4
- CC1=C(Cl)C(=O)N(c2cc(C(F)(F)F)c(C(F)(F)F)cn2)C1O (stereo not drawn) [AF43] — lower, 1

Tested on: Echinochloa crus-galli
Experiment: as above
Format: in vivo
Design: key: 0 = no damage to plant, 5 = total damage to plant
Conditions: Application post-emergence, rate 1000 g/ha, evaluated after 13 days
Protocol: as §1, §2

Point of comparison: `CC1=C(Cl)C(=O)N(c2cc(C(F)(F)F)c(C(F)(F)F)cn2)C1O` (stereo not drawn) [AF43], “ECHCG herbicidal damage score” value 5. Against it:
- CC1=C(Cl)C(=O)N(c2cc(C(C)(C)C)ccn2)C1O (stereo not drawn) [AF36] — the same, 5
- CC1=C(Cl)C(=O)N(c2cc(C(F)(F)F)cc(Cl)n2)C1O (stereo not drawn) [AF37] — lower, 4
- CC1=C(Cl)C(=O)N(c2cc(F)ccn2)C1O (stereo not drawn) [AF39] — the same, 5
- CC1=C(Cl)C(=O)N(c2cc(C(C)F)ccn2)C1O (stereo not drawn) [AF40] — the same, 5
- CC1=C(Cl)C(=O)N(c2cc(C)ccn2)C1O (stereo not drawn) [AF41] — the same, 5
- COC(=O)c1cnc(N2C(=O)C(Cl)=C(C)C2O)cc1C(F)(F)F (stereo not drawn) [AF42] — lower, 4

Tested on: Alopecurus myosuroides
Experiment: Pre-emergence herbicidal activity, glasshouse pot test
Format: in vivo
Conditions: pre-emergence spray, rate 1000 g/ha, evaluated after 13 days, scale 0-5
Protocol: as §1, with “After” for “After 8 days”, “for one day (pre-emergence)” for “(post-emergence)”
as §2

Point of comparison: `CC1=C(Cl)C(=O)N(c2cc(C)ccn2)C1O` (stereo not drawn) [AF41], “ALOMY damage score, application pre-emergence” value 4. Against it:
- CC1=C(Cl)C(=O)N(c2cc(C(C)(C)C)ccn2)C1O (stereo not drawn) [AF36] — the same, 4
- CC1=C(Cl)C(=O)N(c2cc(C(F)(F)F)cc(Cl)n2)C1O (stereo not drawn) [AF37] — lower, 3
- CC1=C(Cl)C(=O)N(c2cc(F)ccn2)C1O (stereo not drawn) [AF39] — lower, 3
- CC1=C(Cl)C(=O)N(c2cc(C(C)F)ccn2)C1O (stereo not drawn) [AF40] — lower, 2
- COC(=O)c1cnc(N2C(=O)C(Cl)=C(C)C2O)cc1C(F)(F)F (stereo not drawn) [AF42] — lower, 0
- CC1=C(Cl)C(=O)N(c2cc(C(F)(F)F)c(C(F)(F)F)cn2)C1O (stereo not drawn) [AF43] — lower, 0

Tested on: zea mays
Experiment: as above
Format: in vivo
Conditions: pre-emergence spray, rate 1000 g/ha, evaluated after 13 days, scale 0-5
Protocol: as §1, with “After” for “After 8 days”, “for one day (pre-emergence)” for “(post-emergence)”
as §2

Point of comparison: `CC1=C(Cl)C(=O)N(c2cc(C)ccn2)C1O` (stereo not drawn) [AF41], “ZEAMX damage score, application pre-emergence” value 3. Against it:
- CC1=C(Cl)C(=O)N(c2cc(C(C)(C)C)ccn2)C1O (stereo not drawn) [AF36] — lower, 2
- CC1=C(Cl)C(=O)N(c2cc(C(F)(F)F)cc(Cl)n2)C1O (stereo not drawn) [AF37] — lower, 0
- CC1=C(Cl)C(=O)N(c2cc(F)ccn2)C1O (stereo not drawn) [AF39] — lower, 1
- CC1=C(Cl)C(=O)N(c2cc(C(C)F)ccn2)C1O (stereo not drawn) [AF40] — lower, 2
- COC(=O)c1cnc(N2C(=O)C(Cl)=C(C)C2O)cc1C(F)(F)F (stereo not drawn) [AF42] — lower, 0
- CC1=C(Cl)C(=O)N(c2cc(C(F)(F)F)c(C(F)(F)F)cn2)C1O (stereo not drawn) [AF43] — lower, 0

Tested on: Setaria faberi
Experiment: as above
Format: in vivo
Conditions: pre-emergence spray, rate 1000 g/ha, evaluated after 13 days, scale 0-5
Protocol: as §1, with “After” for “After 8 days”, “for one day (pre-emergence)” for “(post-emergence)”
as §2

Point of comparison: `CC1=C(Cl)C(=O)N(c2cc(C(F)(F)F)c(C(F)(F)F)cn2)C1O` (stereo not drawn) [AF43], “SETFA damage score, application pre-emergence” value 0. Against it:
- CC1=C(Cl)C(=O)N(c2cc(C(C)(C)C)ccn2)C1O (stereo not drawn) [AF36] — higher, 5
- CC1=C(Cl)C(=O)N(c2cc(C(F)(F)F)cc(Cl)n2)C1O (stereo not drawn) [AF37] — higher, 1
- CC1=C(Cl)C(=O)N(c2cc(F)ccn2)C1O (stereo not drawn) [AF39] — higher, 3
- CC1=C(Cl)C(=O)N(c2cc(C(C)F)ccn2)C1O (stereo not drawn) [AF40] — higher, 5
- CC1=C(Cl)C(=O)N(c2cc(C)ccn2)C1O (stereo not drawn) [AF41] — higher, 4
- COC(=O)c1cnc(N2C(=O)C(Cl)=C(C)C2O)cc1C(F)(F)F (stereo not drawn) [AF42] — the same, 0

Tested on: Abutilon theophrasti
Experiment: as above
Format: in vivo
Conditions: pre-emergence spray, rate 1000 g/ha, evaluated after 13 days, scale 0-5
Protocol: as §1, with “After” for “After 8 days”, “for one day (pre-emergence)” for “(post-emergence)”
as §2

Point of comparison: `CC1=C(Cl)C(=O)N(c2cc(F)ccn2)C1O` (stereo not drawn) [AF39], “ABUTH damage score, application pre-emergence” value 4. Against it:
- CC1=C(Cl)C(=O)N(c2cc(C(C)(C)C)ccn2)C1O (stereo not drawn) [AF36] — higher, 5
- CC1=C(Cl)C(=O)N(c2cc(C(F)(F)F)cc(Cl)n2)C1O (stereo not drawn) [AF37] — lower, 0
- CC1=C(Cl)C(=O)N(c2cc(C(C)F)ccn2)C1O (stereo not drawn) [AF40] — higher, 5
- CC1=C(Cl)C(=O)N(c2cc(C)ccn2)C1O (stereo not drawn) [AF41] — higher, 5
- COC(=O)c1cnc(N2C(=O)C(Cl)=C(C)C2O)cc1C(F)(F)F (stereo not drawn) [AF42] — lower, 0
- CC1=C(Cl)C(=O)N(c2cc(C(F)(F)F)c(C(F)(F)F)cn2)C1O (stereo not drawn) [AF43] — lower, 0

Tested on: Amaranthus retroflexus
Experiment: as above
Format: in vivo
Conditions: pre-emergence spray, rate 1000 g/ha, evaluated after 13 days, scale 0-5
Protocol: as §1, with “After” for “After 8 days”, “for one day (pre-emergence)” for “(post-emergence)”
as §2

Point of comparison: `CC1=C(Cl)C(=O)N(c2cc(C)ccn2)C1O` (stereo not drawn) [AF41], “AMARE damage score, application pre-emergence” value 5. Against it:
- CC1=C(Cl)C(=O)N(c2cc(C(C)(C)C)ccn2)C1O (stereo not drawn) [AF36] — the same, 5
- CC1=C(Cl)C(=O)N(c2cc(C(F)(F)F)cc(Cl)n2)C1O (stereo not drawn) [AF37] — lower, 0
- CC1=C(Cl)C(=O)N(c2cc(F)ccn2)C1O (stereo not drawn) [AF39] — lower, 4
- CC1=C(Cl)C(=O)N(c2cc(C(C)F)ccn2)C1O (stereo not drawn) [AF40] — the same, 5
- COC(=O)c1cnc(N2C(=O)C(Cl)=C(C)C2O)cc1C(F)(F)F (stereo not drawn) [AF42] — lower, 0
- CC1=C(Cl)C(=O)N(c2cc(C(F)(F)F)c(C(F)(F)F)cn2)C1O (stereo not drawn) [AF43] — lower, 0

Tested on: Echinochloa crus-galli
Experiment: as above
Format: in vivo
Conditions: pre-emergence spray, rate 1000 g/ha, evaluated after 13 days, scale 0-5
Protocol: as §1, with “After” for “After 8 days”, “for one day (pre-emergence)” for “(post-emergence)”
as §2

Point of comparison: `CC1=C(Cl)C(=O)N(c2cc(C(C)(C)C)ccn2)C1O` (stereo not drawn) [AF36], “ECHCG damage score, application pre-emergence” value 5. Against it:
- CC1=C(Cl)C(=O)N(c2cc(C(F)(F)F)cc(Cl)n2)C1O (stereo not drawn) [AF37] — lower, 0
- CC1=C(Cl)C(=O)N(c2cc(F)ccn2)C1O (stereo not drawn) [AF39] — lower, 4
- CC1=C(Cl)C(=O)N(c2cc(C(C)F)ccn2)C1O (stereo not drawn) [AF40] — lower, 4
- CC1=C(Cl)C(=O)N(c2cc(C)ccn2)C1O (stereo not drawn) [AF41] — lower, 4
- COC(=O)c1cnc(N2C(=O)C(Cl)=C(C)C2O)cc1C(F)(F)F (stereo not drawn) [AF42] — lower, 0
- CC1=C(Cl)C(=O)N(c2cc(C(F)(F)F)c(C(F)(F)F)cn2)C1O (stereo not drawn) [AF43] — lower, 0
